Drawing on PubChem BioAssay (NCI), this text covers GI50 and TGI for 13 molecules.

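Cultured in 96-well plates, cells were exposed to test compound for 48 hours across five concentrations. GI50: concentration for 50% inhibition of growth. Definition used: TGI = concentration required for complete inhibition of growth.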

Test systems include HT29 colon; MDA-MB-231 breast; A498 renal; TK-10 renal; SF-295 CNS; SNB-75 CNS; SK-MEL-2 melanoma; HOP-92 NSCLC; SN12C renal; SF-539 CNS.
Assay in all cases: growth of human tumour cells (NCI), 48 h

As to `O=C(Nc1nc2ccc(OC(F)(F)F)cc2s1)c1ccc(F)cc1`, the GI50 with HT29 colon is 3.88 µM; with MDA-MB-231 breast, 3.3 µM; with A498 renal, 2.93 µM; with TK-10 renal, 4.06 µM; in the experiment with SF-295 CNS, 2.54 µM; in the experiment on SNB-75 CNS, 3.45 µM. For the same molecule, the GI50 is 3.08 µM with SK-MEL-2 melanoma, 3.91 µM in the experiment on HOP-92 NSCLC, 2.58 µM in the experiment with SN12C renal and 2.26 µM in the experiment with SF-539 CNS. For the same molecule, the TGI was over 100 µM in the experiment on HT29 colon; 18.9 µM in the experiment on MDA-MB-231 breast; 9.2 µM in the experiment with A498 renal; over 100 µM with TK-10 renal; 9.35 µM in the experiment with SF-295 CNS; 53.9 µM in the experiment with SNB-75 CNS. For the same molecule, the TGI amounted to 7.39 µM with SK-MEL-2 melanoma, 8.35 µM in the experiment on HOP-92 NSCLC, 8.21 µM in the experiment on SN12C renal and 6.95 µM in the experiment with SF-539 CNS.
For the molecule `O=C1NC(=NCCc2ccccc2F)S/C1=C\c1ccc2ncccc2c1`, the GI50 in the experiment on HT29 colon is 5.87 µM; in the experiment with MDA-MB-231 breast it was 16.2 µM; with A498 renal it was 4.83 µM; in the experiment with TK-10 renal, 5.13 µM; in the experiment on SF-295 CNS, 7.06 µM; in the experiment on SNB-75 CNS, 5.34 µM. Further, the GI50 with SK-MEL-2 melanoma was 6.16 µM; with HOP-92 NSCLC it was 7.84 µM; in the experiment with SN12C renal, 8.18 µM; in the experiment with SF-539 CNS it was 5.18 µM. Besides, the TGI with HT29 colon was over 25 µM; with MDA-MB-231 breast, over 25 µM; in the experiment on A498 renal, 18.2 µM; with TK-10 renal it was over 25 µM; with SF-295 CNS, over 25 µM; in the experiment on SNB-75 CNS, 19.1 µM. Also, the TGI is 14.5 µM with SK-MEL-2 melanoma, over 25 µM in the experiment on HOP-92 NSCLC, over 25 µM in the experiment on SN12C renal and over 25 µM in the experiment with SF-539 CNS.
On to `COC(=O)COc1ccccc1/C=C1/N=C(c2ccccc2)N(c2c(C)n(C)n(-c3ccccc3)c2=O)C1=O`, for which the GI50 with HT29 colon, in the experiment on MDA-MB-231 breast, with A498 renal, with TK-10 renal, in the experiment with SF-295 CNS and in the experiment with SNB-75 CNS was over 100 µM throughout. For the same molecule, the GI50 in the experiment on SK-MEL-2 melanoma is 25 µM; in the experiment with HOP-92 NSCLC it was over 100 µM; in the experiment on SN12C renal, over 100 µM; in the experiment with SF-539 CNS it was over 100 µM. In addition, the TGI in the experiment on HT29 colon, in the experiment on MDA-MB-231 breast, in the experiment with A498 renal, in the experiment with TK-10 renal, in the experiment with SF-295 CNS and in the experiment on SNB-75 CNS was over 100 µM in each case. The TGI in the experiment with SK-MEL-2 melanoma was 56.4 µM; in the experiment on HOP-92 NSCLC, over 100 µM; with SN12C renal it was over 100 µM; in the experiment with SF-539 CNS, over 100 µM.
As for `Nc1nc(N)c2c(Cl)c(CNc3ccc(Cl)c(Cl)c3)ccc2n1`, the TGI in the experiment on HT29 colon turned out to be 10.3 µM; in the experiment on MDA-MB-231 breast it was 7.26 µM; in the experiment with A498 renal, 8.68 µM; in the experiment with TK-10 renal, 12.4 µM; with SF-295 CNS, 12.2 µM; in the experiment with SNB-75 CNS, 18.4 µM. For the same molecule, the TGI in the experiment on SK-MEL-2 melanoma was 16.7 µM; in the experiment with HOP-92 NSCLC, 9.36 µM; in the experiment on SN12C renal, 23.3 µM; with SF-539 CNS, 1.21 µM.
`COc1cc(C(=O)/C=C/c2cccnc2Nc2ccc(Cl)cc2)cc(OC)c1OC`: the GI50 was 1.43 µM in the experiment on HT29 colon; 1.49 µM with MDA-MB-231 breast; 1.41 µM with A498 renal; 1.87 µM in the experiment with TK-10 renal; 1.93 µM in the experiment with SF-295 CNS; 1.63 µM in the experiment with SNB-75 CNS. Besides, the GI50 with SK-MEL-2 melanoma was 2.01 µM; with HOP-92 NSCLC, 0.519 µM; in the experiment on SN12C renal, 1.46 µM; with SF-539 CNS, 1.71 µM. Also, the TGI is 3.25 µM in the experiment with HT29 colon; 3.12 µM in the experiment on MDA-MB-231 breast; 2.84 µM in the experiment with A498 renal; 3.35 µM with TK-10 renal; 3.97 µM with SF-295 CNS; 3 µM with SNB-75 CNS. Moreover, the TGI in the experiment with SK-MEL-2 melanoma worked out at 4.11 µM; in the experiment on HOP-92 NSCLC, 2.14 µM; with SN12C renal, 2.86 µM; with SF-539 CNS it was 3.11 µM.
Consider `COC(=O)NC1=Nc2ccccc2C(=O)NN1`, for which the TGI with HT29 colon, in the experiment with MDA-MB-231 breast, in the experiment with A498 renal, in the experiment on TK-10 renal, in the experiment on SF-295 CNS and in the experiment on SNB-75 CNS was over 100 µM in each case. The TGI with SK-MEL-2 melanoma, with HOP-92 NSCLC, with SN12C renal and in the experiment with SF-539 CNS was over 100 µM each time.
Turning to `O=C(O)c1cc(-c2ccc(-c3ccccc3)cc2)nc2cc3ccccc3cc12`, the TGI is over 100 µM in the experiment with HT29 colon; over 100 µM with MDA-MB-231 breast; over 100 µM with A498 renal; over 100 µM in the experiment with TK-10 renal; over 100 µM with SF-295 CNS; 69.9 µM in the experiment with SNB-75 CNS. For the same molecule, the TGI is over 100 µM in the experiment on SK-MEL-2 melanoma, 82.2 µM with HOP-92 NSCLC, over 100 µM in the experiment on SN12C renal and over 100 µM with SF-539 CNS.
Regarding `COc1cc2c3c(n(CCCNCCCCN)c(=O)c2cc1OC)-c1cc2c(cc1C3=O)OCO2`, the GI50 in the experiment on HT29 colon was 4.57 µM; in the experiment with MDA-MB-231 breast, 2.86 µM; in the experiment with A498 renal, 5.07 µM; with TK-10 renal it was 0.773 µM; in the experiment on SF-295 CNS it was 0.169 µM; in the experiment with SNB-75 CNS, 10.7 µM. The GI50 with SK-MEL-2 melanoma was 4.86 µM; with HOP-92 NSCLC it was 0.738 µM; in the experiment with SN12C renal it was 0.373 µM; in the experiment on SF-539 CNS, 0.191 µM. The TGI in the experiment with HT29 colon was over 100 µM; in the experiment with MDA-MB-231 breast, 9.13 µM; in the experiment with A498 renal it was 21 µM; in the experiment on TK-10 renal it was 10.1 µM; in the experiment on SF-295 CNS, 16.5 µM; with SNB-75 CNS, 32.2 µM. Also, the TGI in the experiment on SK-MEL-2 melanoma was determined as 16.4 µM; in the experiment with HOP-92 NSCLC it was 3.8 µM; in the experiment with SN12C renal, 5.89 µM; in the experiment on SF-539 CNS it was 2.74 µM.
Regarding `CC1(C)CCC2(C(=O)O)C(O)CC3(C)C(=CCC4C5(C)CCC(OC6OCC(O)C(O)C6OC6OCC(O)C(O)C6OC6OCC(O)C(OC7OC(CO)C(O)C(O)C7O)C6O)C(C)(C)C5CCC43C)C2C1` (centres undefined), the TGI in the experiment on HT29 colon is over 100 µM; in the experiment on MDA-MB-231 breast, over 100 µM; in the experiment on A498 renal it was 59 µM; in the experiment on TK-10 renal, over 100 µM; in the experiment with SF-295 CNS, 42.8 µM; with SNB-75 CNS, 40.1 µM. Moreover, the TGI in the experiment with SK-MEL-2 melanoma is 76.3 µM; with HOP-92 NSCLC, 82.7 µM; in the experiment on SN12C renal, 76.5 µM; in the experiment on SF-539 CNS, over 100 µM.
Turning to `CCNCCS(=O)(=O)NC[C@@]1(c2ccccc2)SC(NC(=O)C(C)(C)C)=NN1C(=O)C(C)(C)C`, the GI50 was under 0.01 µM with HT29 colon; under 0.01 µM with MDA-MB-231 breast; under 0.01 µM with A498 renal; 19.3 µM in the experiment with TK-10 renal; under 0.01 µM with SF-295 CNS; under 0.0137 µM in the experiment on SNB-75 CNS. The GI50 in the experiment on SK-MEL-2 melanoma, in the experiment with SN12C renal and in the experiment on SF-539 CNS was under 0.01 µM each time. For the same molecule, the TGI in the experiment on HT29 colon is over 100 µM; with MDA-MB-231 breast, 28.1 µM; with A498 renal, 53.4 µM; in the experiment on TK-10 renal, over 100 µM; with SF-295 CNS it was 1.16 µM; in the experiment on SNB-75 CNS, over 73.8 µM. The TGI was 28.4 µM in the experiment with SK-MEL-2 melanoma, over 82.1 µM in the experiment with HOP-92 NSCLC, over 100 µM in the experiment with SN12C renal and 0.768 µM in the experiment on SF-539 CNS.
For `C/C(=N\O)C1CC(CC(=O)O)C1(C)C` (centres undefined), the TGI in the experiment on HT29 colon, with MDA-MB-231 breast, in the experiment with A498 renal, with TK-10 renal, with SF-295 CNS and in the experiment with SNB-75 CNS was over 100 µM each time. Besides, the TGI in the experiment with SK-MEL-2 melanoma, with HOP-92 NSCLC, in the experiment on SN12C renal and in the experiment with SF-539 CNS was over 100 µM throughout.
`N#CC(Cl)CS(=O)(=O)c1ccccc1` (centres undefined): the TGI in the experiment on HT29 colon was 53.1 µM; in the experiment with MDA-MB-231 breast, 41.4 µM; in the experiment with A498 renal, 30.9 µM; with TK-10 renal it was 6.85 µM; with SF-295 CNS it was 36.3 µM; in the experiment with SNB-75 CNS, 37.1 µM. The TGI in the experiment with SK-MEL-2 melanoma was found to be 33 µM; in the experiment with HOP-92 NSCLC it was 4.1 µM; in the experiment with SN12C renal, 31.7 µM; with SF-539 CNS it was 28.5 µM.
Consider `Cc1ccc(/C=C(/C#N)n2nnc3cccc(F)c32)cc1`, for which the GI50 in the experiment with HT29 colon is 0.359 µM; in the experiment with MDA-MB-231 breast, 0.807 µM; in the experiment on A498 renal, 0.226 µM; in the experiment on TK-10 renal, 1.22 µM; with SF-295 CNS, 0.368 µM; in the experiment with SNB-75 CNS it was 0.212 µM. Further, the GI50 with SK-MEL-2 melanoma is 0.522 µM; in the experiment on HOP-92 NSCLC, 0.309 µM; in the experiment with SN12C renal it was 0.485 µM; in the experiment with SF-539 CNS, 0.247 µM. Besides, the TGI with HT29 colon was determined as 11.9 µM; with MDA-MB-231 breast, 9.66 µM; in the experiment with A498 renal, 0.877 µM; in the experiment with TK-10 renal, 13 µM; in the experiment with SF-295 CNS, 7.39 µM; in the experiment on SNB-75 CNS, 0.623 µM. For the same molecule, the TGI in the experiment with SK-MEL-2 melanoma came to 19 µM; with HOP-92 NSCLC, 4.75 µM; in the experiment with SN12C renal it was 12.8 µM; with SF-539 CNS, 0.657 µM.
